Patent US20120328696A1, “ANTI-PARKINSONIAN COMPOUND ACETYLSALICYLIC ACID MALTOL ESTER” (Hutecs Korea Pharmaceutical Co., Ltd., priority 2008, published 2012)

Key:
Assay type in all cases: in vivo
[1] = system: GPx-1 (+/+)- and GPx-1 (−/−)-mice; assay: Rota-rod test after MA; settings: PKC inhibitors intra-striatal (chelerythrine 0.2 ug/head, rottlerin 3.0 ug/head significant); MA 8 mg/kg i.p. x4; GPx-1 (+/+) and (−/−) mice
Experimental: (§1) The mice received four times of MA (8 mg/kg, ip) or saline as a 2 hr-time interval. Chemicals (AME, EBS, and PKC inhibitors) were administrated for 5 consecutive days (twice daily), and were given 2 times at 4 hr and 30 min before the first MA injection as shown in the experimental schedule. Animals were sacrificed at 4 hrs and 3 days after the final MA administration.
The apparatus (Ugo Basile model 7650, Comerio, VA, Italy) consisted of a base platform and a rotating rod with a nonslippery surface. The rod was placed at a height of 15 cm from the base. The rod, 30 cm in length, was divided into 5 equal sections by 6 opaque disks (so that the subjects cannot be distracted by one another) To assess motor performance, the mice first trained on the apparatus 2 minutes at a constant rate of 4 r.p.m. per 30 s prior to the test. The test was performed 30 minutes after training and an accelerating paradigm was applied, starting from a rate of 4 r.p.m. to a maximum speed of 40 r.p.m., then the rotation speed was kept constant at 40 r.p.m. for a maximum of 300 s. The duration for which the animal could maintain balance on the rotating drum was measured as the rotarod latency, with a maximal cut-off time of 300 s.

[2] = system: GPx-1 (+/+)- and GPx-1 (−/−)-mice; assay: Locomotor activity after MA; settings: PKC inhibitors intra-striatal (chelerythrine 0.2 ug/head, rottlerin 3.0 ug/head significant); MA 8 mg/kg i.p. x4; GPx-1 (+/+) and (−/−) mice
Experimental: as §1
Locomotor activity was measured for 30 min 3 days after the last MA administration using an automated video-tracking system (Noldus Information Technology, Wagenin, The Netherlands). Four test boxes (40×40×30 cm high) were operated simultaneously by an IBM computer. Mice were studied individually during locomotion in each test box, where they were adapted for 5 min before starting the experiment. […] The distance traveled in cm by the animals in horizontal locomotor activity was analyzed. Data were collected and analyzed between 09:00 and 17:00 h (Kim et al., 2001).

[3] = system: GPx-1 (+/+)- and GPx-1 (−/−)-mice; assay: MA-induced hyperthermia (rectal temperature); settings: PKC inhibitors intra-striatal (doses of Table 1); MA 8 mg/kg i.p. x4; GPx-1 (+/+) and GPx-1 (−/−) mice
Experimental: as §1
Rectal temperature was measured in the MA- or saline-treated mice. Measurement was performed at constant daytime intervals starting at 9:00 A.M. to avoid the influence on circadian variations. Rectal temperature was measured by inserting a thermometer probe lubricated with oil at least 3 cm into the rectum of the mice. To prevent sudden movements occurring especially in MA-treated mice, animals were gently handled with a wool glove while their tail was moved to allow the probe insertion. This was done to prevent the effects of restrain stress on rectal temperature. When the attempt to insert probe was not successful (i.e., sudden movements of the animal or the need to restrain the mouse), the animal was excluded from the groups.

| SMILES | effect on MA-induced impairment in rota-rod performance [1] | effect on MA-induced impairment in locomotor activity [2] | effect on MA-induced hyperthermia [3] |
| --- | --- | --- | --- |
| O=c1cc(O)cc(/C=C/c2ccc(O)c(O)c2)o1 [hispidin] | did not affect MA-induced behavioral impairments | did not affect MA-induced behavioral impairments | did not show any significant effect |
| Cn1c2ccccc2c2c3c(c4c5ccccc5n(CCC#N)c4c21)CNC3=O [Go 6976] | did not affect MA-induced behavioral impairments | did not affect MA-induced behavioral impairments | did not show any significant effect |
